pIC50: −log10 of the molar value. Active and inactive are the calls of the source. How the calls were made is not given here.
Test system: HEK-293T NF-kB luciferase reporter, luminescence counterscreen
Experiment: NF-kB reporter suppression in HEK-293T cells – luminescence, B-cell screen hits, counter-screen for BCR NF-kB inhibitor project, dose response (AID 489022)

SMILES	pIC50	IC50
O=C(Nc1ccccc1C(=O)Nc1nnc(C(F)(F)F)s1)c1ccccc1	5.36	
COC(=O)[C@@]12OC[C@]34[C@H]([C@@H](O)[C@@H]1O)[C@@]1(C)C(=O)C(O[C@@H]5OC(CO)[C@@H](O)[C@@H](O)[C@@H]5O)=C[C@@H](C)[C@@H]1C[C@H]3OC(=O)[C@H](OC(=O)/C=C(\C)C(C)(C)OC(C)=O)[C@@H]24 (stereo partly drawn)	5.49	
COc1cc(-c2nc3n(n2)C(c2ccc(F)cc2)C2=C(CCCC2=O)N3)cc(OC)c1OC (stereo not drawn)		30.4 µM (inactive)
CC(=O)C1=NN(c2ccccc2)C(c2cccs2)N1c1ccc(N(C)C)cc1 (stereo not drawn)	5.27	
COc1cc(NC(=O)c2ccco2)c(OC)cc1NC(=O)c1cc(OC)c(OC)c(OC)c1	4.75	
CC1(C)CC2CC(C)(CN2S(=O)(=O)c2ccc(C(=O)Nc3ccc(S(=O)(=O)N4CCOCC4)cc3)cc2)C1 (stereo not drawn)	6.17	
Cc1nc2cc(-c3ccccc3)nn2c(C)c1CCC(=O)N1CCC2(CC1)OCCO2		52 µM (inactive)
CCCNC(=O)c1ccc(N2CCC3(CC2)CC(c2cccc(Br)c2)=NO3)c(NC(=O)c2ccc(Cl)c([N+](=O)[O-])c2)c1		> 80 µM (inactive)
CC(C)C(c1nnnn1Cc1ccccc1)N(Cc1ccco1)Cc1cccs1 (stereo not drawn)	5.05	
COc1ccc(NC(=O)c2cc(-c3ccccn3)nc3ccccc23)cc1S(=O)(=O)N(C)C		51.4 µM (inactive)
CC1Cc2ccccc2N1S(=O)(=O)c1cnc(Cl)c(Br)c1 (stereo not drawn)		41.6 µM (inactive)
O=C(Oc1cccc(/C=N/Nc2nc(N3CCOCC3)nc(N3CCOCC3)n2)c1)c1ccco1		> 80 µM (inactive)
CC(C)Cn1c([N+](=O)[O-])nc2c1c(=O)[nH]c(=O)n2C		37 µM (inactive)
Cc1ccc(C(=O)CSc2nnc(COc3cccc(C)c3)o2)cc1		21.6 µM (inactive)
CCOc1ccc(-c2nc(CSCC(=O)NC3CC3)c(C)o2)cc1		> 80 µM (inactive)
CCNc1nc(C)c2cc(Br)c(=O)n(CC)c2n1		> 80 µM (inactive)
COc1cccc(-c2noc(CCC(=O)NCCc3ccccc3)n2)c1		75.4 µM (inactive)
CCn1c(=O)cc(SCC(=O)N2CCN(C(=O)c3ccco3)CC2)c2ccccc21		40.9 µM (inactive)
COc1ccccc1/C=C1\SC(=S)N(CCC(=O)Nc2nnc(C)s2)C1=O		> 80 µM (inactive)
Cc1[nH]c2ccccc2c1/C=N/Nc1nc(Nc2ccc(F)cc2)nc(N2CCOCC2)n1		> 80 µM (inactive)
Cc1cc(OC(=O)c2ccccc2Cl)cc(=O)n1C		> 80 µM (inactive)
CCc1ccc(/C=C2\SC(=S)N(CCCC(=O)Nc3ccccn3)C2=O)cc1		> 80 µM (inactive)
Cc1ccc(Nc2nc(N/N=C\c3ccc4c(c3)OCO4)nc(N3CCOCC3)n2)cc1		> 80 µM (inactive)
Cc1cc(C)c2nc(NC(=O)[C@@H](NC(=O)c3cccc(S(=O)(=O)N4CCOCC4)c3)C(C)C)sc2c1		> 80 µM (inactive)

SMILES	pIC50	IC50
O=C(O)CCSc1ncnc2sc(-c3ccccc3)cc12	4.93	
O=C(NCCCN1CCOCC1)c1cc(-c2ccc(Br)cc2)on1		43.7 µM (inactive)
Cc1c(CCC(=O)NCCCn2ccnc2)c(=O)oc2c(C)c3oc4c(c3cc12)CCCC4	5.18	
CCn1c(=S)[nH]c2cc(S(=O)(=O)N3CCCCC3)ccc21		33.9 µM (inactive)
COc1ccc(-c2ccc(F)cc2)cc1[C@H]1[C@H]2C=CC[C@@H](C)[C@@H]2C(=O)N1Cc1ccccc1	4.88	
CCC(C)NC(=O)c1c(N)n(/N=C/c2ccccn2)c2nc3ccccc3nc12 (stereo not drawn)		34.8 µM (inactive)
Cc1ccc(C)c(-n2nnnc2Sc2nnnn2-c2ccccc2)c1	5.17	
CCC(=O)N(C1=C(NC)C(=O)c2ccccc2C1=O)C(C)C		> 80 µM (inactive)
CCC(CO)Oc1cc(NCc2ccccc2O)c2ncn(C(C)C)c2c1 (stereo not drawn)	5.32	
CCOc1ccc(-c2cc(CCCC(=O)NCCCOC)no2)cc1		60 µM (inactive)
O=c1cccc2c1c1cc[nH]c3ccc(=O)n2c31	5.53	
C#CCN(Cc1ccccc1)S(=O)(=O)C=C		51.3 µM (inactive)
CCCOc1ccc(NC(=O)C(=O)NCCCn2ccnc2)cc1		> 80 µM (inactive)
COc1cccc(/C=C2/SC(=S)N(CCCC(=O)Nc3ccc(O)cc3)C2=O)c1		50.6 µM (inactive)
COc1ccc(-c2noc(N3CCC(C(=O)Nc4ccc(OC)c(OC)c4)CC3)n2)cc1		> 80 µM (inactive)
CCC(=O)N1c2ccccc2[C@@H](N(C(C)=O)c2ccccc2)C[C@H]1C		39.2 µM (inactive)
O=C(CCCN1C(=O)/C(=C/c2ccccc2Cl)SC1=S)NNC(=O)c1ccc(Cl)cc1		> 80 µM (inactive)
COC(=O)[C@@H]1Cc2c([nH]c3ccccc23)C(C)(C)N1C(=O)CCl		36 µM (inactive)
COc1cc(-c2cc(=O)c3c(O)c(OC)c(OC)c(OC)c3o2)cc(OC)c1OC		> 80 µM (inactive)
CC1CCc2c(sc3nc(C(C)(C)C)nc(N4CCN(C(=O)CCl)CC4)c23)C1 (stereo not drawn)		30.6 µM (inactive)
O=C(Nc1cccc(Br)c1)c1ccc2c(c1)SC1=NS(=O)(=O)CCN12	4.98	
COc1ccc(/C=C2\SC(=S)N(CCC(=O)Nc3ccc(C(=O)O)cc3)C2=O)cc1		> 80 µM (inactive)
COc1ccccc1/C=C1\SC(=S)N(CCC(=O)Nc2cc(C)on2)C1=O		> 80 µM (inactive)
CC(C)C[C@@H](N)c1nnc(SCC(=O)c2ccc(Cl)cc2)o1		31.9 µM (inactive)

SMILES	pIC50	IC50
COc1cc(-c2nc3ccc(N4CCN(C)CC4)cc3[nH]2)cc(OC)c1OC		> 80 µM (inactive)
CCc1ccc(/C=C2/SC(=S)N(CCC(=O)Nc3cccnc3)C2=O)cc1		> 80 µM (inactive)
C=CCn1c(O)c(C(CC)=NC(C)c2ccccc2)c(=O)[nH]c1=O (stereo not drawn)		25 µM (inactive)
CCN(CC)CCOC(=O)c1ccc(NC(=O)CCCN2C(=O)S/C(=C/c3ccc(OC)cc3)C2=S)cc1	4.94	
CCN1C(=O)c2cccc3c(S(=O)(=O)NCC4CCCO4)ccc1c23 (stereo not drawn)		54.5 µM (inactive)
Cc1cc(C)c2nc(NC(=O)C3CSC4(C)CCC(=O)N34)sc2c1 (stereo not drawn)		> 80 µM (inactive)
Cc1c(CCO)c(=O)oc2n[nH]c(-c3ccccc3)c12		> 80 µM (inactive)
COc1ccc(/C=C2/SC(=S)N(CCCC(=O)Nc3ccc(O)cc3)C2=O)cc1OC		> 80 µM (inactive)
COc1ccc(C(=O)N/N=C/c2sc(N3CCOCC3)nc2-c2ccccc2)cc1OC	4.85	
CC(C)CCNC(=O)CCCOc1cc(=O)n(C)c2ccccc12		60.7 µM (inactive)
Oc1[nH]c2ccccc2c1N=Nc1nc(Nc2ccccc2)nc(N2CCOCC2)n1		35.5 µM (inactive)
C(=N\Nc1nc(Nc2ccccc2)nc(N2CCOCC2)n1)/c1c[nH]c2ccccc12		53 µM (inactive)
COc1cccc(/C=C2\SC(=S)N(CCCC(=O)NC3=NCCS3)C2=O)c1		69.1 µM (inactive)
COc1ccc(-n2nnnc2S(=O)(=O)CC(=O)N2CCCCC2)cc1	4.77	
CN(C)CCCN=Cc1c(-c2ccccc2)[nH]n(-c2nc3ccccc3s2)c1=O		> 80 µM (inactive)
COC(=O)c1c(NC(=O)c2cccc([N+](=O)[O-])c2)sc(C(N)=O)c1C		> 80 µM (inactive)
Cc1c(CCC(=O)N2CCC(C(=O)O)(c3ccccc3)CC2)c(=O)oc2cc3oc4c(c3cc12)CCCC4		21.6 µM (inactive)
CN(C)C(=O)CCc1nc(-c2ccc(C(C)(C)C)cc2)no1		51.8 µM (inactive)
CCC(C)N1C(=O)/C(=C/c2c(NCCCOC(C)C)nc3c(C)cccn3c2=O)SC1=S (stereo not drawn)		> 80 µM (inactive)
Cn1c(=NC(=O)CCl)sc2ccccc21		21.6 µM (inactive)
CSc1ccc(-c2nc(CSCC(=O)NC3CC3)c(C)o2)cc1		37.7 µM (inactive)
COc1ccc(S(=O)(=O)Nc2cc3c(C(C)=O)c(C)oc3c3ccccc23)cc1		> 80 µM (inactive)
Cc1ccc(C(=O)CSc2nnc(COc3cc(C)cc(C)c3)o2)cc1		24.9 µM (inactive)
C=CCOc1ccccc1CN(C(=O)CCl)c1ccc2c(c1)OCO2		28.1 µM (inactive)

SMILES	pIC50	IC50
Cc1cc2ccccn2c1C(=O)c1ccc(NN)c([N+](=O)[O-])c1		30.5 µM (inactive)
O=C(C1CCC1)N1CCN(S(=O)(=O)c2ccc([N+](=O)[O-])cc2)CC1		> 80 µM (inactive)
COc1cccc(N2CCN(c3ncnc4c3[nH]c3ccc(F)cc34)CC2C)c1 (stereo not drawn)	6.18	
CCOC(=O)c1cc2c(=O)n3ccccc3nc2n(CC(C)C)c1=NC(=O)c1c(-c2c(F)cccc2Cl)noc1C	5.27	
Cc1ccc(O)c(NC(=O)COc2cc(C)ccc2C)c1		> 80 µM (inactive)
CCN(CC)C(=O)c1ccc(S(=O)(=O)Cc2ccc(C)cc2)c([N+](=O)[O-])c1		34.7 µM (inactive)
Cc1nc2cc(-c3ccc(Cl)cc3)nn2c(C)c1CCC(=O)NCc1ccco1		> 80 µM (inactive)
O=C(O)CCn1c(O)c(C=C2N=c3ccccc3=N2)sc1=S		70.8 µM (inactive)
N#Cc1ccccc1COc1ccc(/C=C/C(=O)O)cc1	5.22	
CCOc1ccc(S(=O)(=O)NCc2ccncc2)cc1NC(=O)c1ccccc1	5.86	
COc1cc(C[C@@H]2C(=O)OC[C@H]2Cc2ccc(OC)c(OC)c2)ccc1O	6.18	
CCOc1ccc(-n2c(SCC(=O)Nc3ccc4c(c3)OCCO4)nc3c(c2=O)SCC3)cc1		> 80 µM (inactive)
COc1cc2c3c(c1)c(N=NC(N)=S)c(O)n3C(C)(C)C=C2C		> 80 µM (inactive)
O=C(CCCN1C(=O)S/C(=C/C=C/c2ccccc2)C1=O)Nc1ccc(C(=O)O)cc1		> 80 µM (inactive)
COc1ccc(/C=C2\SC(=S)N(CCC(=O)Nc3ccc(O)cc3)C2=O)cc1		> 80 µM (inactive)
COc1ccc(Cc2nc(-c3ccc(NC(=O)c4cccnc4)cc3)no2)cc1		> 80 µM (inactive)
C/C=C(/C)C(=O)OC1Cc2c(ccc3ccc(=O)oc23)OC1(C)C (stereo not drawn)		23.5 µM (inactive)
CSC1CCCCC1(O)CSc1nc2c(cc1C#N)CCCC2 (stereo not drawn)		> 80 µM (inactive)
O=C(Nc1nc(-c2ccccc2)cs1)c1ccccc1NS(=O)(=O)c1ccc(F)cc1	6.41	
CC1=CC(C)(C)Nc2ccc(OC(=O)CN3C(=O)c4ccccc4C3=O)cc21	5.03	
CCOC(=O)CNC(=O)CSc1nnc(NC(=O)c2ccc(C)cc2)s1	5.15	
